Experimental data taken from patent US20070275935A1, “Estratriene Derivatives” (priority 2003, published 2007).

Key:
HASM cells = test: bFGF-induced HASM proliferation over 7 days on plastic or collagen-coated silastic, comparison with dexamethasone; type: cell-based, human; conditions: 1 μM, bFGF 300 pM
Method: We examined the effects of 4NO (1 μM) and the glucocorticoid dexamethasone (Dex, 100 nM) on the proliferation of HASM cells in response to bFGF (300 pM). Dexamethasone is a commonly used anti-inflammatory glucocorticoid. Cells were cultured on a standard plastic tissue culture plate. The test compounds were pre-incubated with HASM for 30 minutes before the addition of bFGF. The incubation continued for 7 days before cell enumeration (FIG. 5). Data are expressed as a percentage of the cell number in vehicle treated wells and are presented as the mean and standard error of the mean.
The response of HASM cells grown on a collagen extracellular matrix to the glucocorticoids and test compounds was also examined. Cells were cultured on a collagen-coated silastic base. HASM cells were pre-incubated with the test compounds for 30 minutes before the addition of bFGF (300 pM). The incubation continued for 7 days before cell enumeration (FIG. 6). Data are expressed as a percentage of the cell number in vehicle treated wells and are presented as the mean and standard error of the mean.

[1] = system: bleomycin-induced fibrosis in C57BL6 female mice; test: Bleomycin model of pulmonary fibrosis in mice; type: in vivo; conditions: 4NO 50 mg/kg/day i.p.
Method: The activity of CP-DM-2-11-7 was investigated using a bleomycin model of pulmonary fibrosis (Underwood et al. 2000). 4NO was administered daily commencing on the day of the bleomycin challenge, 2 hours before the mice received bleomycin. The 4NO (50 mg/kg/day, by intraperitoneal injection) was then administered throughout the 14 day period. The mice also received a daily injection of bromo-deoxyuridine (BrdU) by intraperitoneal injection). The other two groups of mice), control and bleomycin-treated received a daily intraperitoneal injection of the vehicle containing BrdU. The vehicle comprised 10% dimethyl sulphoxide in peanut oil. […]
Body weight was measured throughout the experiment. […] After a 5 minute stabilization period, values of resistance and compliance were recorded and the animal was killed by a lethal dose of pentabarbitone.
Half of each group of animals was then subjected to bronchoalveolar lavage (BAL) to generate BAL fluid (BALF) in which the number of infiltrating cells was counted by haemocytometry. […]
Tissue areas reported in Table 6 were determined by capturing images of the lung section at a 100 times magnification and importing those images into a powerpoint file. […]
A 36 point overlay was then applied to the captured image and the number of grid points that intersect with tissue was determined for each of the 10 selected fields. […]

`COc1cc2c(cc1O)C(=NOCc1ccc([N+](=O)[O-])cc1)C[C@@H]1[C@@H]2CC[C@]2(C)[C@@H](O)CC[C@@H]12` [CP-DM-2-11-7, 2-methoxy-6-(4-nitrobenzyloxy)iminoestradiol] was tested. Which “effect on bFGF-induced HASM proliferation on collagen (FIG. 6)” value (HASM cells; collagen-coated silastic) did it give?
Its value is “retained its effectiveness as an anti-proliferative agent”.

And the “effect on bFGF-induced HASM proliferation on plastic (FIG. 5)” value (HASM cells; plastic tissue culture plate)?
The value was “markedly reduced the increase in HASM cell number to levels below that of dexamethasone”.

And the “Proliferation Epithelial” value ([1]; BrdU positive nuclei as percentage of total nuclei, major airway, n = 6, bleomycin alone 4.646 ± 0.8564)?
The value was 3.802 ± 0.9053.

And the “Parenchymal Cell Prolif.” value ([1]; magnification of 600×, bleomycin alone 1340 ± 287)?
Its value is 738 ± 185 positive cells/10^6 pixels.
